Assay results: publication PMC11550483 (2024)

The molecules below were run against SARS2 M^pro (Severe acute respiratory syndrome coronavirus 2, UniProt P0DTD1, P3395H).
Type: biochemical, SARS-CoV-2

First: CC(=O)C1=C(O)C(=O)N(c2ccc(Br)cn2)C1c1ccc(Cl)cc1 (stereo not shown) [MWAC-0001809, CC(=O)C1=C(O)C(=O)N(C1c2ccc(Cl)cc2)c3ccc(Br)cn3]
Second: C#CCN1C(=O)C(O)(CC(=O)c2ccc(Cl)cc2)c2ccccc21 (stereo not shown) [MWAC-0001731, OC1(CC(=O)c2ccc(Cl)cc2)C(=O)N(CC#C)c3ccccc13]
The “% inhibition (20 µM) biochemical” value of the first is higher: 16% for the first, 5% for the second.

First: CCc1ccc(C(=O)Cn2c(C)nc([N+](=O)[O-])c2Br)cc1 [MWAC-0001880, CCc1ccc(cc1)C(=O)Cn2c(C)nc(c2Br)[N+](=O)[O-]]
Second: Cc1cc(=O)oc2c(C)c(OCc3ccccc3)ccc12 [MWAC-0001732, CC1=CC(=O)Oc2c(C)c(OCc3ccccc3)ccc12]
The “% inhibition (20 µM) biochemical” value of the first is lower: 0% for the first, 7% for the second.

First: COc1ccc(C2(C)CC(C)(C)N(C(C)=O)c3ccccc32)cc1 (stereo not shown) [MWAC-0001751, COc1ccc(cc1)C2(C)CC(C)(C)N(C(=O)C)c3ccccc23]
Second: COc1ccc(C2=NN3C(C2)c2ccccc2OC3C(C)C)cc1 (stereo not shown) [MWAC-0001724, COc1ccc(cc1)C2=NN3C(Oc4ccccc4C3C2)C(C)C]
The “% inhibition (20 µM) biochemical” value of the first is lower: 4.45% for the first, 7% for the second.

Going from `Cc1ccc2nc(-c3ccc(SCC(=O)Nc4nc(C)cs4)nc3)[nH]c2c1` [MWAC-0001838, Cc1ccc2nc([nH]c2c1)c3ccc(SCC(=O)Nc4nc(C)cs4)nc3] to `COc1ccc(OC)c(NC(=O)CSc2nc3cc4c(cc3cc2C#N)OCCO4)c1` [MWAC-0001834, COc1ccc(OC)c(NC(=O)CSc2nc3cc4OCCOc4cc3cc2C#N)c1], the “% inhibition (20 µM) biochemical” value rises from 2.56% to 5.66%.

`CCOc1ccccc1C1Nc2ccccc2NC2=C1C(=O)CC(c1ccccc1)C2` (stereo not shown) [MWAC-0001718, CCOc1ccccc1C2Nc3ccccc3NC4=C2C(=O)CC(C4)c5ccccc5] and `CC1=C(C(=O)OC(C)C)C(c2ccsc2)C2=C(CC(c3cccs3)CC2=O)N1` (stereo not shown) [MWAC-0001728, CC(C)OC(=O)C1=C(C)NC2=C(C1c3ccsc3)C(=O)CC(C2)c4cccs4] are the same in “% inhibition (20 µM) biochemical” value: 0% for the first, 0% for the second.

Going from `COc1cccc(NC(=O)Cn2c(=O)n(C)c(=O)n(-c3ccc(Oc4ccc(SC(F)(F)F)cc4)c(C)c3)c2=O)c1` [MWAC-0001087, COc1cccc(NC(=O)CN2C(=O)N(C)C(=O)N(C2=O)c3ccc(Oc4ccc(SC(F)(F)F)cc4)c(C)c3)c1] to `CCOc1ccccc1OCC(=O)N/N=C/c1cc(C)ccc1O` [MWAC-0001844, CCOc1ccccc1OCC(=O)N\N=C\c2cc(C)ccc2O], the “% inhibition (20 µM) biochemical” value rises from 3% to 21%.

`COCCNc1nc2cc(C)ccc2[nH]1` [MWAC-0001822, COCCNc1nc2cc(C)ccc2[nH]1] was tested, and the “% inhibition (20 µM) biochemical” value was 3%.
